Test results: patent publication US8168651B2, “Protein kinase modulators” (Cylene Pharmaceuticals, Inc., priority 2008, dated 2012)
Where two headings read alike, the source gives them in different places.

Columns and labels:
recombinant human PIM1 = recombinant human PIM1 (Homo sapiens (Human), UniProt P11309); test: PIM-1 kinase activity in cell-free in vitro assay; format: biochemical; conditions: for inhibition at 0.5 µM: 500 nM compound, read-out: PIM-1: % inh 500 nM
recombinant human CK2 = recombinant human CK2 (Homo sapiens (Human), UniProt P68400); test: CK2 assay (cell-free, 33P-ATP filter plate); format: biochemical; conditions: for inhibition at 0.5 µM: 500 nM compound, read-out: CK2: % inh 500 nM; for inhibition at 1 µM: read-out: CK2 % inhibition 1.0 uM, 1.0 uM
Sequence of recombinant human CK2 (P68400 whole entry): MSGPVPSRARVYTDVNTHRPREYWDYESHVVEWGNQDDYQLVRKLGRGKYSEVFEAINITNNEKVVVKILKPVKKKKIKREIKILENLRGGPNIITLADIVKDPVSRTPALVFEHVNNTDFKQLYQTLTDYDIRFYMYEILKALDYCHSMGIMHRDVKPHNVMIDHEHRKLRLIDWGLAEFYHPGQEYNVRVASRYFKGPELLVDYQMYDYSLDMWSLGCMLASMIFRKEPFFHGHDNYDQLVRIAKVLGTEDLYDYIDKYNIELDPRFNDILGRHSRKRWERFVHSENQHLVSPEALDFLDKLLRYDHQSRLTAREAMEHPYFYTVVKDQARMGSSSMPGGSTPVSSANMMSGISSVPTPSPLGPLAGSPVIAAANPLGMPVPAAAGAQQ
Sequence of recombinant human CK2 (P67870 whole entry partner): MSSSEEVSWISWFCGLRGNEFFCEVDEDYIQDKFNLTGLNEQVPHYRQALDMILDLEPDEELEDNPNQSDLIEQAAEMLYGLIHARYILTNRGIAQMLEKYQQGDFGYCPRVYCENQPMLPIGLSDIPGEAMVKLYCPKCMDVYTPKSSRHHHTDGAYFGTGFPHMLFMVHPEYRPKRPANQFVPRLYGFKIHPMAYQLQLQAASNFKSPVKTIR

[1] = tested on: HCT-116 human colorectal carcinoma cells; test: Cell-proliferation assay using Alamar Blue dye; format: cell-based; conditions: Homo sapiens, HCT-116, second HCT-116 column (c8); read-out: HCT-116 (uM) cell proliferation modulatory activity;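 further: cells exposed to compound for about 4 days, then Alamar Blue added and dye fluorescence read after about 4 h, compared with medium-only control wells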

Sequence of recombinant human PIM1 (P11309 whole entry): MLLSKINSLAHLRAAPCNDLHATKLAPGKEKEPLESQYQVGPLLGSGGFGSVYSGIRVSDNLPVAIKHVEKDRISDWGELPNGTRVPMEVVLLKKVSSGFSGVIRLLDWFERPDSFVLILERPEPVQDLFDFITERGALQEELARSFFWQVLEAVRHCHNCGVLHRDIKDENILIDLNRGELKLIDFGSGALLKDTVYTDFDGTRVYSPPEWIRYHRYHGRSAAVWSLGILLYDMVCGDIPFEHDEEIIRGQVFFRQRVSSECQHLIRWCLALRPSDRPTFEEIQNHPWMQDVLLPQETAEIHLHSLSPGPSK

SMILES	inhibition at 0.5 µM (recombinant human PIM1; cell-free assay) [%]	inhibition at 0.5 µM (recombinant human CK2; cell-free assay) [%]	further results
COC(=O)c1ccc2c(c1)nc(Nc1ccc(F)c(Cl)c1)c1ncncc12	–	–	inhibition at 0.5 µM (recombinant human PIM1; cell-free): -17.9%; inhibition at 0.5 µM (recombinant human CK2; cell-free): 6.26%
Cc1noc(-c2ccc3c(c2)nc(Nc2ccccc2)c2ccncc23)n1	–	–	inhibition at 0.5 µM (recombinant human PIM1; cell-free): 32.7%; IC50 (recombinant human PIM1; cell-free): > 1.1 µM; inhibition at 0.5 µM (recombinant human CK2; cell-free): 27.2%
CNc1ncc2c(n1)c(Nc1ccccc1)nc1cc(C(=O)OC)ccc12	-9.76	-12.1	–
CN(C)CCNc1nc2cc(C#N)ccc2c2cscc12	20	23.4	–
CCN1CCCC1CNc1nc2cc(-c3nnn[nH]3)ccc2c2cscc12 (stereo not shown)	95.9	72.8	IC50 (recombinant human PIM1; cell-free assay): 0.079 µM
CN1CCCCC1CNc1nc2cc(-c3nnn[nH]3)ccc2c2cscc12 (stereo not shown)	93.9	57.4	IC50 (recombinant human PIM1; cell-free assay): 0.054 µM
CCN1CCCC1CNc1nc2cc(C(=O)O)ccc2c2cnccc12 (stereo not shown)	79.4	107	IC50 (recombinant human PIM1; cell-free assay): 0.155 µM
CN1CCCCC1CNc1nc2cc(C(=O)O)ccc2c2cnccc12 (stereo not shown)	82.5	103	IC50 (recombinant human PIM1; cell-free assay): 0.211 µM
CCN1CCCC1CNc1nc2cc(C#N)ccc2c2ccsc12 (stereo not shown)	-9.29	-29.4	–
CC(C)(C)OC(=O)N1CCC(Nc2nc3cc(C#N)ccc3c3ccsc23)CC1	-29.4	-17	–
CN(C)CCNc1nc2cc(C#N)ccc2c2ccsc12	115	-16.8	–
CN1CCCCC1CNc1nc2cc(C#N)ccc2c2ccsc12 (stereo not shown)	59.5	5.51	–
c1cc2c(s1)c(NC1CCNCC1)nc1cc(-c3nnn[nH]3)ccc12	111	53.7	IC50 (recombinant human PIM1; cell-free assay): 0.138 µM
CN(C)CCNc1nc2cc(-c3nnn[nH]3)ccc2c2ccsc12	99.2	24.2	IC50 (recombinant human PIM1; cell-free assay): 0.267 µM
CN1CCCCC1CNc1nc2cc(-c3nnn[nH]3)ccc2c2ccsc12 (stereo not shown)	14.7	-29.1	–
COCCNc1nc2cc(C#N)ccc2c2sccc12	-30.6	-18	–
COC(C)(C)CNc1nc2cc(C#N)ccc2c2sccc12	-30	-17.1	–
COCCNc1nc2cc(-c3nnn[nH]3)ccc2c2sccc12	65	47.2	–
OCCNc1nc2cc(-c3nnn[nH]3)ccc2c2sccc12	101	51.3	IC50 (recombinant human PIM1; cell-free assay): 0.143 µM
COC(=O)c1cccc2c1[nH]c(=O)c1ccncc12	-70.5	16.7	–
N#Cc1ccc2c(c1)nc(OCC(F)(F)F)c1ccsc12	-50.2	-9.05	–
N#Cc1ccc2c(c1)nc(OCc1ccccc1)c1ccsc12	-18.4	1.85	–
CN(C)CCOc1nc2cc(C#N)ccc2c2sccc12	-43.2	-18	–

SMILES	inhibition at 0.5 µM (recombinant human PIM1; cell-free assay) [%]	inhibition at 0.5 µM (recombinant human CK2; cell-free assay) [%]	further results
N#Cc1ccc2c(c1)nc(NCCC(F)(F)F)c1ccsc12	-89.6	-7.76	–
N#Cc1ccc2c(c1)nc(NCC(F)(F)F)c1ccsc12	-32	-18.4	–
CN(C)CCOc1nc2cc(-c3nnn[nH]3)ccc2c2sccc12	91.6	31.4	–
FC(F)(F)COc1nc2cc(-c3nnn[nH]3)ccc2c2sccc12	32.3	33	–
O=C(O)c1ccc2c(c1)nc(NC1CCCCC1)c1ccncc12	64.8	95.8	–
N#Cc1ccc2c(c1)nc(Nc1cccc(F)c1)c1ccsc12	-4.85	3.06	–
OCCN(CCO)CCNc1nc2cc(-c3nnn[nH]3)ccc2c2sccc12	118	50.7	IC50 (recombinant human PIM1; cell-free assay): 0.116 µM
N#Cc1ccc2c(c1)nc(Oc1ccc(F)c(F)c1)c1ccsc12	27.8	-9.99	–
N#Cc1ccc2c(c1)nc(Oc1cccc(Cl)c1)c1ccsc12	10.6	-10.8	–
Cc1nn(C)c(C)c1NC(=O)NCc1ccc2c(c1)nc(Nc1cccc(F)c1)c1ccsc12	11	-5.43	–
O=c1[nH]c2cc(F)ccc2c2cnccc12	15.3	-1.1	–
N#Cc1ccc2c(c1)nc(Nc1ccccc1)c1ccsc12 [drawing 614]	–	–	inhibition at 1 µM (recombinant human CK2): 0%
NC(=O)c1ccc2c(c1)nc(Nc1ccccc1)c1ccsc12 [drawing 615]	–	–	inhibition at 1 µM (recombinant human CK2): 0%
O=c1[nH]c(-c2ccc3c(c2)nc(Nc2ccccc2)c2ccsc23)no1 [drawing 617]	–	–	inhibition at 1 µM (recombinant human CK2): 0%
O=C(NCc1ccccc1)c1ccc2c(c1)[nH]c(=O)c1ccsc12 [drawing 671]	–	–	CK2 % inhib @ 10 uM (recombinant human CK2): 14%
O=C(NCc1ccccc1)c1ccc2c(c1)[nH]c(=O)c1ccsc12 [drawing 672]	–	–	CK2 % inhib @ 10 uM (recombinant human CK2): −1%
COC(=O)c1ccccc1NC(=O)c1ccc2c(c1)[nH]c(=O)c1ccsc12 [drawing 673]	–	–	CK2 % inhib @ 10 uM (recombinant human CK2): 5%
COC(=O)c1ccccc1NC(=O)c1ccc2c(c1)[nH]c(=O)c1ccsc12 [drawing 674]	–	–	CK2 % inhib @ 10 uM (recombinant human CK2): −16%
CC(C)(C)OC(=O)NC1CCN(C(=O)c2ccc3c(c2)[nH]c(=O)c2ccsc23)CC1 [drawing 676]	–	–	CK2 % inhib @ 10 uM (recombinant human CK2): 10%
CC(C)(C)OC(=O)NC1CCN(C(=O)c2ccc3c(c2)[nH]c(=O)c2ccsc23)CC1 [drawing 677]	–	–	CK2 % inhib @ 10 uM (recombinant human CK2): 1%
COC(=O)c1cccc2c1nc(Cl)c1ccncc12 [drawing 2000]	-29.2	10.1	–
O=C(O)c1cccc2c1nc(Nc1cccc(Cl)c1)c1ccncc12 [drawing 2001]	20.2	15.5	–

Now from value to molecule, other results behind:

inhibition at 0.5 µM (recombinant human PIM1; cell-free assay) [%]	inhibition at 0.5 µM (recombinant human CK2; cell-free assay) [%]	SMILES	further results
25	96.5	O=C(O)c1ccc2c(c1)nc(Nc1ccccc1Oc1ccccc1)c1ccncc12	IC50 [1]: > 10 µM
-7.65	41.5	O=C(O)c1ccc2c(c1)nc(Nc1ccccc1)c1nccnc12	IC50 [1]: > 10 µM
-26	5.49	O=C(O)c1ccc2c(c1)nc(NCCc1ccccc1)c1nccnc12	IC50 [1]: > 10 µM
46.4	24.6	CN1CCCCC1CNc1nc2cc(C#N)ccc2c2cscc12 (stereo not shown)	–
6.89	20.7	CCN1CCCC1CNc1nc2cc(C#N)ccc2c2cscc12 (stereo not shown)	–
89.7	66	CN(C)CCNc1nc2cc(-c3nnn[nH]3)ccc2c2cscc12	IC50 (recombinant human PIM1; cell-free assay): 0.087 µM
88	80.1	CN1CCCCC1CNc1nc2cc(C(=O)O)ccc2c2sccc12 (stereo not shown)	IC50 (recombinant human PIM1; cell-free assay): 0.104 µM
93.3	92.8	CCN1CCCC1CNc1nc2cc(C(=O)O)ccc2c2sccc12 (stereo not shown)	IC50 (recombinant human PIM1; cell-free assay): 0.1 µM
80	1.86	CCN1CCCC1CNc1nc2cc(-c3nnn[nH]3)ccc2c2ccsc12 (stereo not shown)	–
-38.6	-54.2	N#Cc1ccc2c(c1)nc(Oc1ccccc1)c1ccsc12	–
-17.7	-9.97	N#Cc1ccc2c(c1)nc(NCCN(CCO)CCO)c1ccsc12	–
-6.97	5.71	c1ccc(COc2nc3cc(-c4nnn[nH]4)ccc3c3sccc23)cc1	–
93.2	49	FC(F)(F)CNc1nc2cc(-c3nnn[nH]3)ccc2c2sccc12	–
92.3	58.4	FC(F)(F)CCNc1nc2cc(-c3nnn[nH]3)ccc2c2sccc12	–
-39.8	-35.3	CN1CCC(N(C)c2nc3cc(CN)ccc3c3sccc23)C1 (stereo not shown)	–
-38.5	-50.4	CN1CCC(N(C)c2nc3cc(CNC(=O)Nc4cccc(Cl)c4)ccc3c3sccc23)C1 (stereo not shown)	–
106	101	O=C(O)c1ccc2c(c1)nc(NC1CCCC1)c1ccncc12	IC50 (recombinant human PIM1; cell-free assay): 0.565 µM
-22.2	-7.33	N#Cc1ccc2c(c1)nc(Oc1ccc3ncccc3c1)c1ccsc12	–
10	-3.78	N#Cc1ccc2c(c1)nc(Oc1ccc(F)cc1)c1ccsc12	–
1.38	-17.9	CC(=O)c1ccc(Oc2nc3cc(C#N)ccc3c3sccc23)cc1	–
-10.1	-7.77	Cc1cc2c(cc1OCc1ccccc1)[nH]c(=O)c1ccncc12	–
19.8	7.5	O=c1[nH]c2cnccc2c2cnccc12	–
-16.4	-8.77	NCc1ccc2c(c1)nc(Nc1cccc(F)c1)c1ccsc12	–
2.98	-2.29	Fc1cccc(Nc2nc3cc(CN(Cc4ccccc4)Cc4ccccc4)ccc3c3sccc23)c1	–
-17.5	-9.99	Cc1cc(NC(=O)NCc2ccc3c(c2)nc(Nc2cccc(F)c2)c2ccsc23)c(C(F)(F)F)o1	–
-11.2	-4.71	Cc1noc(C)c1NC(=O)NCc1ccc2c(c1)nc(Nc1cccc(F)c1)c1ccsc12	–
9.09	1.22	O=c1[nH]c2ccc(OC(F)(F)F)cc2c2cnccc12	–
78.9	36.6	NC(=O)c1cccc2c1nc(Nc1cccc(Cl)c1)c1ccncc12 [drawing 2002]	–
3.96	-7.87	COC(=O)c1cccc2c1nc(Nc1ccccc1)c1ccncc12 [drawing 2003]	–
-77.4	-13.5	O=C(O)c1cccc2c1nc(Nc1ccccc1)c1ccncc12 [drawing 2004]	–
